Data as given in patent US11912701B2, “Protein kinase inhibitors for promoting liver regeneration or reducing or preventing hepatocyte death” (HEPAREGENIX GMBH, priority 2018, dated 2024).

Assays:
[1] = target: T1, BRaf (Homo sapiens, UniProt P15056); assay: KINOMEscan competition binding assay, BRaf; settings: ratio PoC (off-target)/PoC (MKK4)
T1 construct: purchased ProQinase GmbH, Freiburg, Germany (33PanQinase Assay Service)
Experimental: (§1) The assay was performed by combining three components: DNA-tagged kinase; immobilized ligand; and a test compound. The ability of the test compound to compete with the immobilized ligand was measured via quantitative PCR of the DNA tag. The technology is described in detail in Fabian, M. A. et al. A small molecule-kinase interaction map for clinical kinase inhibitors. Nat. […] Nat.
(§2) For investigation of the affinity to MKK4, BRaf, MKK7 and JNK1, the kinases were produced in HEK-293 cells and subsequently tagged with DNA for qPCR detection. […] The liganded beads were blocked with excess biotin and washed with blocking buffer (SEABLOCK™ (Pierce), 1% BSA, 0.05% TWEEN®20, 1 mM DTT) to remove unbound ligand and to reduce nonspecific binding. […] All reactions were performed in polystyrene 96-well plates in a final volume of 0.135 mL. […] The kinase concentration in the eluates was measured by qPCR.
(§3) The test compounds were provided as 10 mM stock solutions. The test solutions at indicated final concentrations were prepared at DiscoverX.
(§4) Potency of representative examples against the protein kinases MKK4, BRaf, MKK7 and JNK1 expressed as residual percent of control binding (PoC), was determined at a concentration of 100 nM. The determined potencies are categorized as follows:
(§5) The binding selectivity of representative examples against the protein kinases BRaf, MKK7 and JNK1, altogether denominated as “off-targets” is determined by the ratios of PoC (off-target)/PoC (MKK4).

[2] = target: T2, MKK7 (Homo sapiens, UniProt O14733); assay: KINOMEscan competition binding assay, MKK7; parameters: M1/R419; host or cells: HEK-293; settings: ratio PoC (off-target)/PoC (MKK4)
T2 sequence (O14733 1-419): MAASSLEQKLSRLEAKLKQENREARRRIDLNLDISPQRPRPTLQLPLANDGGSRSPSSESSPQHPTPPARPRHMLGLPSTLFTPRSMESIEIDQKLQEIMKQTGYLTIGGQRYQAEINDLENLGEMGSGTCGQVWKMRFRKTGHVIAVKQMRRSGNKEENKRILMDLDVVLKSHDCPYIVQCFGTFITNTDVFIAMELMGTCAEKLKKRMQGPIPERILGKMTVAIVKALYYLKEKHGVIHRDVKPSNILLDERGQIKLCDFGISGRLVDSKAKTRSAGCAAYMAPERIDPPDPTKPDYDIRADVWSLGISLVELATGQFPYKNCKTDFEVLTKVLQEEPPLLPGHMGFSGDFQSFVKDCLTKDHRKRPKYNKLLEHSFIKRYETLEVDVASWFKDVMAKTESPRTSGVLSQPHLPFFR
Experimental: as §1, §2, §3, §4, §5

[3] = target: T3, MKK4 (Homo sapiens, UniProt P45985); assay: KINOMEscan competition binding assay, MKK4; settings: residual percent of control binding (PoC) at 100 nM
T3 construct: S84/D399; host or cells: HEK-293
T3 sequence (P45985 84-399): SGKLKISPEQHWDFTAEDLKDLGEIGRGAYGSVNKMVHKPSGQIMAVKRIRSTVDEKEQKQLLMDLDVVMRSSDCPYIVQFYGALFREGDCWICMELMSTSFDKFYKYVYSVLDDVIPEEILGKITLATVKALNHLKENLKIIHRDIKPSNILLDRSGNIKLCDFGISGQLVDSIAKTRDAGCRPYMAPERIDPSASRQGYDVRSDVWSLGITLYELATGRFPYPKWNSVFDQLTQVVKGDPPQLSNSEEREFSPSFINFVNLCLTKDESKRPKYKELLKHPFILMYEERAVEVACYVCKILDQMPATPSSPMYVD
Experimental: as §1, §2, §3
Potency of representative examples against the protein kinases MKK4, BRaf, MKK7 and JNK1 expressed as residual percent of control binding (PoC), was determined at a concentration of 100 nM. The determined potencies are categorized as follows: […]

[4] = target: JNK1 (Homo sapiens, UniProt P45983); assay: KINOMEscan competition binding assay, JNK1; parameters: M1/Q384; host or cells: HEK-293; settings: ratio PoC (off-target)/PoC (MKK4)
Experimental: as §1, §2, §3, §4, §5

T1 sequence (P15056 whole entry, species assumed): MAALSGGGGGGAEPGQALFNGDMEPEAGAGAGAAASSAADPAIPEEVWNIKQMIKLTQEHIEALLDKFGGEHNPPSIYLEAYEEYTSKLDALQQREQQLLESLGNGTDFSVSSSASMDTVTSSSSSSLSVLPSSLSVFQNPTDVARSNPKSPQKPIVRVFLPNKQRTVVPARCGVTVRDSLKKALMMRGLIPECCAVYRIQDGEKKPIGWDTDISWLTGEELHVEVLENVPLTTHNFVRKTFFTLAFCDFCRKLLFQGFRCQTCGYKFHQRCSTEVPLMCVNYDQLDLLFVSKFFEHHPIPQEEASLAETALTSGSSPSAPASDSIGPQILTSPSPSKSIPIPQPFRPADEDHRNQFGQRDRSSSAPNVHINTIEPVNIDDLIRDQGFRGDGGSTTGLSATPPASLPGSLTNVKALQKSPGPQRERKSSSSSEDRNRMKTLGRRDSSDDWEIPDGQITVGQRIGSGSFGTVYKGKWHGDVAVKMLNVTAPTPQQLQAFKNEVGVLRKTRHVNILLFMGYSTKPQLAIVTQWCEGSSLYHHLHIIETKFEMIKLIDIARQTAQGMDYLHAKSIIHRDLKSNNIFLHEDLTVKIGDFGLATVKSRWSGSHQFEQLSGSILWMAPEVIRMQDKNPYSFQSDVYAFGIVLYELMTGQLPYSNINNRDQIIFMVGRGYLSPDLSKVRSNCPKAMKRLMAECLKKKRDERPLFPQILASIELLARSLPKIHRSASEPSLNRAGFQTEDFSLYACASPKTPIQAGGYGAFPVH
Sequence of JNK1 (P45983 1-384 isoform P45983-2): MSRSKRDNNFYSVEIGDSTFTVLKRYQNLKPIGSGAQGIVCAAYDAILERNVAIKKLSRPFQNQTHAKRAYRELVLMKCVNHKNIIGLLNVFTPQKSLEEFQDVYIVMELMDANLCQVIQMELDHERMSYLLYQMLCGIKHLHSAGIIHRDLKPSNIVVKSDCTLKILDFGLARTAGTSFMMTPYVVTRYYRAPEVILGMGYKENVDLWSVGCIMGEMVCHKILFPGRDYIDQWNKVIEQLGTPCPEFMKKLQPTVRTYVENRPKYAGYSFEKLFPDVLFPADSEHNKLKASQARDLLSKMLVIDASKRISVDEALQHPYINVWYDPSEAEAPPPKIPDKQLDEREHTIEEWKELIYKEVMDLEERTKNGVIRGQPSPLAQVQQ

Compound | selectivity based on % Ctrl @100 nM vs. Braf [1] | selectivity based on % Ctrl @100 nM vs. MKK7 [2] | MKK4 [% Ctrl @ 100 nM [3] | selectivity based on % Ctrl @100 nM vs. JNK1 [4]
CCCS(=O)(=O)Nc1ccc(F)c(C(=O)c2c[nH]c3ncc(-c4ccc(N5CCN(C(C)=O)CC5)cc4)cc23)c1F [Example 24, N-(3-(5-(4-(4-acetylpiperazin-1-yl)phenyl)-1H-pyrrolo[2,3-b]pyridine-3-carbonyl)-2,4-difluorophenyl)propane-1-sulfonamide] | ◯ (3 ≥ Ratio) | ++ (100 ≥ ratio > 10) | + (3 ≤ PoC < 30) | + (10 ≥ ratio > 3)
CCCS(=O)(=O)Nc1ccc(F)c(C(=O)c2c[nH]c3ncc(-c4ccc(OCC5COC(C)(C)O5)cc4Cl)cc23)c1F (stereo not shown) [Example 25, N-(3-(5-(2-chloro-4-((2,2-dimethyl-1,3-dioxolan-4-yl)methoxy)phenyl)-1H-pyrrolo[2,3-b]pyridine-3-carbonyl)-2,4-difluorophenyl)propane-1-sulfonamide] | ◯ (3 ≥ Ratio) | + (10 ≥ ratio > 3) | + (3 ≤ PoC < 30) | + (10 ≥ ratio > 3)
COc1ccc(-c2cnc3[nH]cc(C(=O)c4c(F)ccc(NS(=O)(=O)Cc5ccccc5)c4F)c3c2)cc1 [Example 26, N-(2,4-difluoro-3-(5-(4-methoxyphenyl)-1H-pyrrolo[2,3-b]pyridine-3-carbonyl)phenyl)-1-phenylmethanesulfonamide] | ++ (100 ≥ ratio > 10) | ++ (100 ≥ ratio > 10) | ++ (1 ≤ PoC < 3) | ++ (100 ≥ ratio > 10)

More lines, now with the values ahead:

selectivity based on % Ctrl @100 nM vs. Braf [1] | selectivity based on % Ctrl @100 nM vs. MKK7 [2] | MKK4 [% Ctrl @ 100 nM [3] | selectivity based on % Ctrl @100 nM vs. JNK1 [4] | Compound
++ (100 ≥ ratio > 10) | ++ (100 ≥ ratio > 10) | ++ (1 ≤ PoC < 3) | ++ (100 ≥ ratio > 10) | O=C(c1c(F)ccc(NS(=O)(=O)Cc2ccccc2)c1F)c1c[nH]c2ncc(-c3ccc(F)cc3)cc12 [Example 28, N-(2,4-difluoro-3-(5-(4-fluorophenyl)-1H-pyrrolo[2,3-b]pyridine-3-carbonyl)phenyl)-1-phenylmethanesulfonamide]
◯ (3 ≥ Ratio) | ++ (100 ≥ ratio > 10) | + (3 ≤ PoC < 30) | ++ (100 ≥ ratio > 10) | CCCS(=O)(=O)Nc1ccc(F)c(C(=O)c2c[nH]c3ncc(-c4ccc(OCC5COC(C)(C)O5)cc4)cc23)c1F (stereo not shown) [Example 29, N-(3-(5-(4-((2,2-dimethyl-1,3-dioxolan-4-yl)methoxy)phenyl)-1H-pyrrolo[2,3-b]pyridine-3-carbonyl)-2,4-difluorophenyl)propane-1-sulfonamide]
++ (100 ≥ ratio > 10) | +++ (Ratio > 100) | +++ (PoC < 1) | +++ (Ratio > 100) | CCCS(=O)(=O)Nc1ccc(F)c(C(=O)c2c[nH]c3ncc(-c4ccc(OCC(O)CO)cc4Cl)cc23)c1F (stereo not shown) [Example 30, N-(3-(5-(2-chloro-4-(2,3-dihydroxypropoxy)phenyl)-1H-pyrrolo[2,3-b]pyridine-3-carbonyl)-2,4-difluorophenyl)propane-1-sulfonamide]
◯ (3 ≥ Ratio) | +++ (Ratio > 100) | +++ (PoC < 1) | +++ (Ratio > 100) | CCCS(=O)(=O)Nc1ccc(F)c(C(=O)c2c[nH]c3ncc(-c4ccc(OCC(O)CO)cc4)cc23)c1F (stereo not shown) [Example 31, N-(3-(5-(4-(2,3-dihydroxypropoxy)phenyl)-1H-pyrrolo[2,3-b]pyridine-3-carbonyl)-2,4-difluorophenyl)propane-1-sulfonamide]
